Tests used:
hepatitis C replicon = hepatitis C replicon EC50; type: cell-based; settings: Hepatitis C virus; Table 2; hepatitis C replicon; read-out: EC50
Description: NS3-NS4 inhibition activity can be determined using known assay methods.

NS3/NS4 complexes = NS3/NS4 complexes (Hepatitis C virus genotype 1a, UniProt P27958); test: NS3/NS4 inhibition activity (IC50); type: biochemical; settings: Table 2, read-out: IC50
Description: NS3-NS4 inhibition activity can be determined using known assay methods. For example, NS3/NS4 complexes may be formed and inhibitory concentrations of test compounds determined as described in U.S. Patent Application Publication Number 2007/0054842 paragraph numbers 1497-1509, which is incorporated herein by reference in its entirety. Similarly, hepatitis C replicon EC50 may be determined using known assay methods such as described in U.S. Patent Application Publication Number 2007/0054842 paragraph numbers 1510-1515. Assays may be conducted at ambient temperature (23° C.) in assay buffer containing 50 mM Tris-HCl, pH 7.5, 15% glycerol, 0.6 mM Lauryldimethylamine Oxide (LDAO), 25 μM NS4A peptide, and 10 mM Dithiothreitol (DTT).

Chain of NS3/NS4 complexes (P27958 1027-1657): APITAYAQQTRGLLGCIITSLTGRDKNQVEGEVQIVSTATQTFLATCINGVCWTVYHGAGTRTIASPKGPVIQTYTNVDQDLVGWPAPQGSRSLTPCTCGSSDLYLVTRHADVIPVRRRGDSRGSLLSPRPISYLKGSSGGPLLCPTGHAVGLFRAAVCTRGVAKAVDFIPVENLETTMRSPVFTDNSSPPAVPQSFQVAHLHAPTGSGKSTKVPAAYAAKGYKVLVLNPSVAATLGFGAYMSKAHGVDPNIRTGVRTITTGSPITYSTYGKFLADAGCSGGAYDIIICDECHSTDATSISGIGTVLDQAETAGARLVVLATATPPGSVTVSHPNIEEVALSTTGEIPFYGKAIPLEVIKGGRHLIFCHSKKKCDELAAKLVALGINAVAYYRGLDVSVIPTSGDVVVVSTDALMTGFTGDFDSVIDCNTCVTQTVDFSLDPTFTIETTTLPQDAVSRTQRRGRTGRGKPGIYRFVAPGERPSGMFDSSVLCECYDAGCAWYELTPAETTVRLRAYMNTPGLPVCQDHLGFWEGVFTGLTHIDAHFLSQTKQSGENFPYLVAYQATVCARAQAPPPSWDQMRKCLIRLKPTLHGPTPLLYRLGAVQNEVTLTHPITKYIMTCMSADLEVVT
Chain of NS3/NS4 complexes (P27958 1658-1711): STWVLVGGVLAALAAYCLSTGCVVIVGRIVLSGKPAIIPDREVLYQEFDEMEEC

Structure (SMILES) | EC50 (hepatitis C replicon) [nM] | IC50 (NS3/NS4 complexes) [nM]
CC1(S(=O)(=O)NC(=O)[C@@]23C[C@H]2/C=C\CCCCC[C@H](Nc2cccc(Cl)c2)C(=O)N2C[C@H](Oc4nc5ccccc5s4)C[C@H]2C(=O)N3)CC1 [Compound 337] | 75 to 500 | < 10
O=C1N[C@]2(C(=O)O)C[C@H]2/C=C\CCCCC[C@H](Nc2cc(C(F)(F)F)cc(C(F)(F)F)c2)C(=O)N2C[C@H](Oc3nc4ccccc4s3)C[C@@H]12 [Compound 338] | > 500 | 75 to 500
CC1(S(=O)(=O)NC(=O)[C@@]23C[C@H]2/C=C\CCCCC[C@H](Nc2ccccc2F)C(=O)N2C[C@H](Oc4nc5ccccc5s4)C[C@H]2C(=O)N3)CC1 [Compound 339] | 75 to 500 | < 10
CC1(S(=O)(=O)NC(=O)[C@@]23C[C@H]2/C=C\CCCCC[C@H](Nc2cc(Cl)cc(Cl)c2)C(=O)N2C[C@H](Oc4nc5ccccc5s4)C[C@H]2C(=O)N3)CC1 [Compound 340] | 10 to 75 | < 10
CC1(S(=O)(=O)NC(=O)[C@@]23C[C@H]2/C=C\CCCCC[C@H](Nc2ccc(F)c(F)c2)C(=O)N2C[C@H](Oc4nc5ccccc5s4)C[C@H]2C(=O)N3)CC1 [Compound 341] | 10 to 75 | < 10
CC1(S(=O)(=O)NC(=O)[C@@]23C[C@H]2/C=C\CCCCC[C@H](Nc2ccc4ccccc4c2)C(=O)N2C[C@H](Oc4nc5ccccc5s4)C[C@H]2C(=O)N3)CC1 [Compound 342] | 75 to 500 | < 10
CC1(S(=O)(=O)NC(=O)[C@@]23C[C@H]2/C=C\CCCCC[C@H](Nc2cc(F)cc(C(F)(F)F)c2)C(=O)N2C[C@H](Oc4nc5ccccc5s4)C[C@H]2C(=O)N3)CC1 [Compound 345] | 10 to 75 | < 10
CC1(S(=O)(=O)NC(=O)[C@@]23C[C@H]2/C=C\CCCCC[C@H](Nc2cc(F)cc(C(F)(F)F)c2)C(=O)N2C[C@H](Oc4nccc5ccccc45)C[C@H]2C(=O)N3)CC1 [Compound 346] | < 10 | < 10
CC1(S(=O)(=O)NC(=O)[C@@]23C[C@H]2/C=C\CCCCC[C@H](Nc2ccc(F)c(C(F)(F)F)c2)C(=O)N2C[C@H](Oc4nccc5ccccc45)C[C@H]2C(=O)N3)CC1 [Compound 347] | < 10 | < 10
O=C1N[C@]2(C(=O)NS(=O)(=O)C3CC3)C[C@H]2/C=C\CCCCC[C@H](Nc2ccc(F)cc2)C(=O)N2C[C@H](Oc3nc4ccccc4s3)C[C@@H]12 [Compound 348] | 75 to 500 | < 10
CC1(S(=O)(=O)NC(=O)[C@@]23C[C@H]2/C=C\CCCCC[C@H](Nc2ccc(F)cc2)C(=O)N2C[C@H](Oc4nc5ccccc5s4)C[C@H]2C(=O)N3)CC1 [Compound 349] | 10 to 75 | < 10
Cc1ccc2nc(O[C@@H]3C[C@H]4C(=O)N[C@]5(C(=O)NS(=O)(=O)C6(C)CC6)C[C@H]5/C=C\CCCCC[C@H](Nc5cc(F)cc(C(F)(F)F)c5)C(=O)N4C3)sc2c1 [Compound 350] | 75 to 500 | < 10
CC1(S(=O)(=O)NC(=O)[C@@]23C[C@H]2/C=C\CCCCC[C@H](Nc2cc(F)cc(C(F)(F)F)c2)C(=O)N2C[C@H](Oc4nc5ccc(Cl)cc5s4)C[C@H]2C(=O)N3)CC1 [Compound 351] | 75 to 500 | < 10
CC1(S(=O)(=O)NC(=O)[C@@]23C[C@H]2/C=C\CCCCC[C@H](Nc2cc(F)cc(C(F)(F)F)c2)C(=O)N2C[C@H](Oc4nc5ccc(Br)cc5s4)C[C@H]2C(=O)N3)CC1 [Compound 352] | 10 to 75 | < 10
CC1(S(=O)(=O)NC(=O)[C@@]23C[C@H]2/C=C\CCCCC[C@H](Nc2cc(F)cc(C(F)(F)F)c2)C(=O)N2C[C@H](Oc4nc5ccccc5o4)C[C@H]2C(=O)N3)CC1 [Compound 353] | 75 to 500 | < 10
COc1ccc2c(O[C@@H]3C[C@H]4C(=O)N[C@]5(C(=O)O)C[C@H]5/C=C\CCCCC[C@H](Nc5cc(F)cc(C(F)(F)F)c5)C(=O)N4C3)cc(-c3ccccc3)nc2c1 [Compound 354] | 75 to 500 | < 10
COc1ccc2c(O[C@@H]3C[C@H]4C(=O)N[C@]5(C(=O)NS(=O)(=O)C6(C)CC6)C[C@H]5/C=C\CCCCC[C@H](Nc5cc(F)cc(C(F)(F)F)c5)C(=O)N4C3)cc(-c3ccccc3)nc2c1 [Compound 355] | < 10 | < 10
COc1ccc2c(O[C@@H]3C[C@H]4C(=O)N[C@]5(C(=O)NS(=O)(=O)C6CC6)C[C@H]5/C=C\CCCCC[C@H](Nc5ccc(F)c(C(F)(F)F)c5)C(=O)N4C3)cc(-c3ccccc3)nc2c1 [Compound 356] | < 10 | < 10
COc1ccc2c(O[C@@H]3C[C@H]4C(=O)N[C@]5(C(=O)NS(=O)(=O)C6(C)CC6)C[C@H]5/C=C\CCCCC[C@H](Nc5cc(F)cc(C(F)(F)F)c5)C(=O)N4C3)cc(-c3nc(C(C)C)cs3)nc2c1C [Compound 358] | 10 to 75 | < 10

Structure (SMILES) | EC50 (hepatitis C replicon) [nM] | IC50 (NS3/NS4 complexes) [nM]
COc1ccc2c(O[C@@H]3C[C@H]4C(=O)N[C@]5(C(=O)NS(=O)(=O)C6(C)CC6)C[C@H]5/C=C\CCCCC[C@H](Nc5ccccc5)C(=O)N4C3)cc(-c3nc(C(C)C)cs3)nc2c1C [Compound 359] | < 10 | < 10
COc1ccc2c(O[C@@H]3C[C@H]4C(=O)N[C@]5(C(=O)NS(=O)(=O)C6(C)CC6)C[C@H]5/C=C\CCCCC[C@H](Nc5cccc(C(F)(F)F)c5)C(=O)N4C3)cc(-c3nc(C(C)C)cs3)nc2c1C [Compound 360] | < 10 | < 10
COc1ccc2c(O[C@@H]3C[C@H]4C(=O)N[C@]5(C(=O)NS(=O)(=O)C6(C)CC6)C[C@H]5/C=C\CCCCC[C@H](Nc5cccc(F)c5)C(=O)N4C3)cc(-c3nc(C(C)C)cs3)nc2c1C [Compound 361] | < 10 | < 10
COc1ccc2c(O[C@@H]3C[C@H]4C(=O)N[C@]5(C(=O)NS(=O)(=O)C6(C)CC6)C[C@H]5/C=C\CCCCC[C@H](Nc5ccc(F)cc5)C(=O)N4C3)cc(-c3nc(C(C)C)cs3)nc2c1C [Compound 362] | < 10 | < 10
COc1ccc2c(O[C@@H]3C[C@H]4C(=O)N[C@]5(C(=O)NS(=O)(=O)C6(C)CC6)C[C@H]5/C=C\CCCCC[C@H](Nc5cc(F)cc(F)c5)C(=O)N4C3)cc(-c3nc(C(C)C)cs3)nc2c1C [Compound 363] | 10 to 75 | < 10
CC(C)n1c(O[C@@H]2C[C@H]3C(=O)N[C@]4(C(=O)NS(=O)(=O)C5(C)CC5)C[C@H]4/C=C\CCCCC[C@H](Nc4ccccc4)C(=O)N3C2)nc2ccccc21 [Compound 365] | < 10 | < 10
COc1ccc2c(O[C@@H]3C[C@H]4C(=O)N[C@]5(C(=O)NS(=O)(=O)C6CC6)C[C@H]5/C=C\CCCCC[C@H](Nc5cccc(C(F)(F)F)c5)C(=O)N4C3)cc(-c3nc(C(C)C)cs3)nc2c1C [Compound 369] | < 10 | < 10
COc1ccc2c(O[C@@H]3C[C@H]4C(=O)N[C@]5(C(=O)NS(=O)(=O)C6(C)CC6)C[C@H]5/C=C\CCCCC[C@H](Nc5ccc(F)c(C(F)(F)F)c5)C(=O)N4C3)cc(-c3nc(C(C)C)cs3)nc2c1C [Compound 374] | < 10 | < 10
O=C1N[C@]2(C(=O)NS(=O)(=O)C3CC3)C[C@H]2/C=C\CCCCC[C@H](Nc2ccc(F)c(C(F)(F)F)c2)C(=O)N2C[C@H](Oc3nccc4ccccc34)C[C@@H]12 [Compound 375] | < 10 | < 10
CC(C)n1c(O[C@@H]2C[C@H]3C(=O)N[C@]4(C(=O)NS(=O)(=O)C5(C)CC5)C[C@H]4/C=C\CCCCC[C@H](Nc4cc(F)cc(C(F)(F)F)c4)C(=O)N3C2)nc2ccccc21 [Compound 376] | < 10 | < 10
COc1ccc2c(O[C@@H]3C[C@H]4C(=O)N[C@]5(C(=O)NS(=O)(=O)C6CC6)C[C@H]5/C=C\CCCCC[C@H](Nc5cccc(OC(F)(F)F)c5)C(=O)N4C3)cc(-c3nc(C(C)C)cs3)nc2c1C [Compound 377] | < 10 | < 10
COc1ccc2c(O[C@@H]3C[C@H]4C(=O)N[C@]5(C(=O)NS(=O)(=O)C6(C)CC6)C[C@H]5/C=C\CCCCC[C@H](Nc5cccc(OC(F)(F)F)c5)C(=O)N4C3)cc(-c3nc(C(C)C)cs3)nc2c1C [Compound 378] | < 10 | < 10
COc1ccc2c(O[C@@H]3C[C@H]4C(=O)N[C@]5(C(=O)NS(=O)(=O)C6(C)CC6)C[C@H]5/C=C\CCCCC[C@H](Nc5nc6ccccc6o5)C(=O)N4C3)cc(-c3nc(C(C)C)cs3)nc2c1C [Compound 379] | < 10 | < 10
CC1(S(=O)(=O)NC(=O)[C@@]23C[C@H]2/C=C\CCCCC[C@H](Nc2nc4ccccc4o2)C(=O)N2C[C@H](Oc4nccc5ccccc45)C[C@H]2C(=O)N3)CC1 [Compound 380] | 10 to 75 | < 10
CC1(S(=O)(=O)NC(=O)[C@@]23C[C@H]2/C=C\CCCCC[C@H](Nc2ccc(F)c(F)c2)C(=O)N2C[C@H](Oc4nccc5ccccc45)C[C@H]2C(=O)N3)CC1 [Compound 381] | 10 to 75 | < 10
CCn1c(O[C@@H]2C[C@H]3C(=O)N[C@]4(C(=O)NS(=O)(=O)C5CC5)C[C@H]4/C=C\CCCCC[C@H](Nc4cc(F)cc(C(F)(F)F)c4)C(=O)N3C2)nc2ccccc21 [Compound 388] | 10 to 75 | < 10
CC(C)n1c(O[C@@H]2C[C@H]3C(=O)N[C@]4(C(=O)NS(=O)(=O)N(C)C)C[C@H]4/C=C\CCCCC[C@H](Nc4cc(F)cc(C(F)(F)F)c4)C(=O)N3C2)nc2ccccc21 [Compound 391] | 10 to 75 | < 10
COc1ccc2c(O[C@@H]3C[C@H]4C(=O)N[C@]5(C(=O)NS(=O)(=O)C6(C)CC6)C[C@H]5/C=C\CCCCC[C@H](Nc5cccc(OC(F)(F)F)c5)C(=O)N4C3)cc(-c3ccccc3)nc2c1 [Compound 392] | < 10 | < 10

From patent publication US8048862B2, “Macrocyclic inhibitors of hepatitis C virus replication” (priority 2008, dated 2011)
